Measured values published in publication PMC7717600, “Novel [(N-alkyl-3-indolylmethylene)hydrazono]oxindoles arrest cell cycle and induce cell apoptosis by inhibiting CDK2 and Bcl-2: synthesis, biological evaluation and in silico studies” (Journal of Enzyme Inhibition and Medicinal Chemistry, 2020).

Legend:
NCI-H226 = conditions: NCI-H226, 10 μM
HCC-2998 = test: NCI SRB screening; assay type: cell-based, human; conditions: HCC-2998, 10 μM
NCI/ADR-RES = conditions: 10 μM
MCF7 = conditions: MCF7, 10 μM
OVCAR-5 = conditions: OVCAR-5, 10 μM
RPMI-8226 = conditions: RPMI-8226, 10 μM
OVCAR-8 = conditions: OVCAR-8, 10 μM
COLO 205 = test: NCI SRB screening; assay type: cell-based, human; conditions: COLO 205, 10 μM
K-562 = conditions: K-562, 10 μM
SW-620 = conditions: SW-620, 10 μM
NCI-H23 = conditions: NCI-H23, 10 μM
SK-MEL-28 = conditions: SK-MEL-28, 10 μM
MALME-3M = conditions: 10 μM
HCT-116 = conditions: HCT-116, 10 μM
A549/ATCC = conditions: 10 μM
ACHN = conditions: 10 μM
786-0 = conditions: 786-0, 10 μM
NCI-H460 = test: NCI SRB screening; assay type: cell-based, human; conditions: NCI-H460, 10 μM
SF-268 = conditions: SF-268, 10 μM
M14 = test: NCI SRB screening; assay type: cell-based; conditions: M14, 10 μM
SF-295 = conditions: SF-295, 10 μM
HOP-62 = conditions: HOP-62, 10 μM
MOLT-4 = conditions: MOLT-4, 10 μM
SK-MEL-2 = conditions: SK-MEL-2, 10 μM
TK-10 = conditions: TK-10, 10 μM
IGROV1 = conditions: IGROV1, 10 μM
UACC-62 = conditions: UACC-62, 10 μM
HL-60(TB) = conditions: HL-60(TB), 10 μM
MDA-MB-468 = conditions: MDA-MB-468, 10 μM
MDA-MB-435 = test: NCI SRB screening; assay type: cell-based; conditions: MDA-MB-435, 10 μM
SNB-19 = conditions: SNB-19, 10 μM
PC-3 = test: NCI SRB screening; assay type: cell-based, human; conditions: PC-3, 10 μM
EKVX = conditions: 10 μM
NCI-H322M = test: NCI SRB screening; conditions: 10 μM
OVCAR-4 = conditions: OVCAR-4, 10 μM
RXF 393 = conditions: RXF 393, 10 μM
SN12C = conditions: 10 μM
HS 578T = conditions: 10 μM
LOX IMVI = test: NCI SRB screening; assay type: cell-based, human; conditions: 10 μM
SNB-75 = conditions: SNB-75, 10 μM
U251 = conditions: U251, 10 μM
BT-549 = conditions: BT-549, 10 μM
DU-145 = conditions: DU-145, 10 μM
SR = conditions: 10 μM
NCI-H522 = conditions: NCI-H522, 10 μM
SK-OV-3 = conditions: SK-OV-3, 10 μM
OVCAR-3 = conditions: OVCAR-3, 10 μM
CCRF-CEM = conditions: 10 μM

## C=CCn1cc(C=NN=C2C(=O)Nc3ccc(Cl)cc32)c2ccccc21 [Compound 10d]
NCI-H226
  GI %: 41%
HCC-2998
  GI %: – (Only GI % higher than 10% are shown)
NCI/ADR-RES
  GI %: – (Only GI % higher than 10% are shown)
MCF7
  GI %: 18%
OVCAR-5
  GI %: – (Only GI % higher than 10% are shown)
RPMI-8226
  GI %: – (Only GI % higher than 10% are shown)
OVCAR-8
  GI %: – (Only GI % higher than 10% are shown)
COLO 205
  GI %: – (Only GI % higher than 10% are shown)
K-562
  GI %: – (Only GI % higher than 10% are shown)
SW-620
  GI %: – (Only GI % higher than 10% are shown)
NCI-H23
  GI %: – (Only GI % higher than 10% are shown)
SK-MEL-28
  GI %: – (Only GI % higher than 10% are shown)
MALME-3M
  GI %: – (Only GI % higher than 10% are shown)
HCT-116
  GI %: – (Only GI % higher than 10% are shown)
A549/ATCC
  GI %: – (Only GI % higher than 10% are shown)
ACHN
  GI %: – (Only GI % higher than 10% are shown)
786-0
  GI %: – (Only GI % higher than 10% are shown)
NCI-H460
  GI %: – (Only GI % higher than 10% are shown)
SF-268
  GI %: – (Only GI % higher than 10% are shown)
M14
  GI %: – (Only GI % higher than 10% are shown)
SF-295
  GI %: – (Only GI % higher than 10% are shown)
HOP-62
  GI %: – (Only GI % higher than 10% are shown)
MOLT-4
  GI %: 14%
SK-MEL-2
  GI %: – (Only GI % higher than 10% are shown)
TK-10
  GI %: – (Only GI % higher than 10% are shown)
IGROV1
  GI %: 23%
UACC-62
  GI %: 19%
HL-60(TB)
  GI %: – (Only GI % higher than 10% are shown)
MDA-MB-468
  GI %: 36%
MDA-MB-435
  GI %: – (Only GI % higher than 10% are shown)
SNB-19
  GI %: – (Only GI % higher than 10% are shown)
PC-3
  GI %: – (Only GI % higher than 10% are shown)
EKVX
  GI %: 33%
NCI-H322M
  GI %: – (Only GI % higher than 10% are shown)
OVCAR-4
  GI %: – (Only GI % higher than 10% are shown)
RXF 393
  GI %: – (Only GI % higher than 10% are shown)
SN12C
  GI %: – (Only GI % higher than 10% are shown)
HS 578T
  GI %: – (Only GI % higher than 10% are shown)
LOX IMVI
  GI %: – (Only GI % higher than 10% are shown)
SNB-75
  GI %: – (Only GI % higher than 10% are shown)
U251
  GI %: – (Only GI % higher than 10% are shown)
BT-549
  GI %: – (Only GI % higher than 10% are shown)
DU-145
  GI %: – (Only GI % higher than 10% are shown)
SR
  GI %: 33%
NCI-H522
  GI %: 17%
SK-OV-3
  GI %: – (Only GI % higher than 10% are shown)
OVCAR-3
  GI %: – (Only GI % higher than 10% are shown)
CCRF-CEM
  GI %: – (Only GI % higher than 10% are shown)
